Test results taken from EP1080104B1, “CERTAIN HETEROARYL SUBSTITUTED THIOL INHIBITORS OF ENDOTHELIN-CONVERTING ENZYME” (Novartis AG, priority 1998, dated 2005).
Bridges are numbered along the chain shown (N, C = ends). Where no end group is shown, it is not given here.

How the values were obtained:
[1] = target: T1, recombinant human endothelin converting enzyme-1 (rhECE-1) (Homo sapiens, UniProt P42892); experiment: in vitro assay for rh-ECE-1 inhibition (radioimmunoassay of ET-1 formed from big ET-1); assay type: biochemical; details: membrane preparation from CHO cells, human big ET-1 0.2 µM, 2 h at 37 °C
T1 construct: made in house; host or cells: Chinese hamster ovary (CHO) cells; 100,000 x g membrane pellet of the homogenate
T1 sequence (P42892 1-770): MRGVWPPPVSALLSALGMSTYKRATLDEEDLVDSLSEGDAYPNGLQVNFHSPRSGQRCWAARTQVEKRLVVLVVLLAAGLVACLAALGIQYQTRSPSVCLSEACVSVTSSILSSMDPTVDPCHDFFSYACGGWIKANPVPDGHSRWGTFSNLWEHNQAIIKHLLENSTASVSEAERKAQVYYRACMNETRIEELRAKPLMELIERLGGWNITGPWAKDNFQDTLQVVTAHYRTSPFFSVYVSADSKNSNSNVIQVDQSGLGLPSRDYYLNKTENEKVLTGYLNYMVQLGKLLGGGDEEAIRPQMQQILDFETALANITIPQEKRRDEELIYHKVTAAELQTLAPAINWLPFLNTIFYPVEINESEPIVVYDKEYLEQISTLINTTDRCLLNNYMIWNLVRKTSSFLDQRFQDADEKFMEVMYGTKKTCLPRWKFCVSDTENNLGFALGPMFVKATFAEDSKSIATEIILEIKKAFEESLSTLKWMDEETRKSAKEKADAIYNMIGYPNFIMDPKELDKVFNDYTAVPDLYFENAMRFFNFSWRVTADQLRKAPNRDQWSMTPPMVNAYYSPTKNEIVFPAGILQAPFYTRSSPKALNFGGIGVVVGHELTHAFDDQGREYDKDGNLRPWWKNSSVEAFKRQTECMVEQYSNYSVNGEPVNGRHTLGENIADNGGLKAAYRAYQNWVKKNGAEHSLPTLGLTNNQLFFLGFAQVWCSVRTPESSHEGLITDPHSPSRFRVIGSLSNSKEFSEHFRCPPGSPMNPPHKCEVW
Protocol: Cells are harvested by scraping, pelleted by centrifugation, and homogenized at 4 °C in a buffer containing 5 mM MgCl2., 1 µM pepstatin A, 100 µM leupeptin, 1 mM PMSF, and 20 mM Tris, pH 7.0, with a ratio of 2 mL of buffer/mL of cells. The cell debris is removed by brief centrifugation, and the supernatant is centrifuged again at 100,000 x g for 30 minutes. The resulting pellet is resuspended in a buffer containing 200 mM NaCl and 50 mM Tes, pH 7.0, at a protein concentration about 15 mg/mL and stored in aliquots at -80°C.
To assess the effect of an inhibitor on ECE-1 activity, 10 µg of protein is preincubated with the compound at a desired concentration for 20 min at room temperature in 50 mM TES, pH 7.0, and 0.005% Triton X-100 in a volume of 10 µL. […]
Diluted samples (200 µL) obtained from the above enzyme assay are incubated at 4° C overnight with 25 µL each of [^125I]ET-1 (10,000 cpm/tube) and 1:20,000-fold diluted rabbit antibodies that recognize specifically the carboxyl terminal tryptophan of ET-1. […] The supernatant is decanted, and the radioactivity in the pellet is counted in a gamma counter. Total and nonspecific binding are measured in the absence of nonradioactive ET-1 and anti-ET antibodies, respectively.
In order to determine the IC50 value of an inhibitor, a concentration-response curve of each inhibitor is determined. […]

[2] = target: rabbit antibodies that recognize specifically the carboxyl terminal tryptophan of ET-1; assay type: binding; details: mean ± SEM, n = 3 - 5; 4° C overnight
Protocol: Diluted samples (200 µL) obtained from the above enzyme assay are incubated at 4° C overnight with 25 µL each of [^125I]ET-1 (10,000 cpm/tube) and 1:20,000-fold diluted rabbit antibodies that recognize specifically the carboxyl terminal tryptophan of ET-1. Goat anti-rabbit antibodies coupled to magnetic beads (70 µg) are then added to each tube, and the reaction mixture is further incubated for 30 min at room temperature. The beads are pelleted using a magnetic rack. The supernatant is decanted, and the radioactivity in the pellet is counted in a gamma counter. Total and nonspecific binding are measured in the absence of nonradioactive ET-1 and anti-ET antibodies, respectively.

| IC50 [1] | IC50 values (displace [125I]ET-1 binding to the antibodies) [2] | Compound |
| --- | --- | --- |
| ~4 nM | – | CC(C)C[C@H](S)C(=O)NC1(C(=O)N[C@@H](Cc2ccc(-c3cccs3)nc2)C(=O)O)CCCC1 [Example 2(s), 2-{[1-(2-Mercapto-4-methyl-pentanoylamino)-cyclopentanecarbonyl]-amino}-3-[6-(thien-2-yl)-pyridin-3-yl]-propionic acid] |
| – | 260,000 ± 66,000 fmol | big ET-1: Human big ET-1, substrate of the ECE-1 assay (CSCSSLMDKECVYFCHLDIIWVNTPEHVVPYGLGSPRS; disulfide 1-15, 3-11; ends not checked; UniProt P05305 53-90, looked up) |
